Results published in ChEMBL document CHEMBL6121032, “Mining Druggable Sites in Influenza A Hemagglutinin: Binding of the Pinanamine-Based Inhibitor M090” (ACS Med Chem Lett, 2025).

Tested on: Influenza A virus
Assay: Antiviral activity against Influenza virus A/WSN/33 expressing M2 S31N mutant channel infected in MDCK cells by plaque reduction assay
Format: functional, organism-based

Question: Which EC50 does the source give for Brc1ccc(CNC23CC4CC(CC(C4)C2)C3)s1 here?
Answer: 1800 µM
